Assay results taken from patent US9433605B2, “Method for promoting synthesis of tissue collagen” (Kyowa Hakko Bio Co., Ltd., priority 2006, dated 2016).

Legend:
[1] = system: synthesis of collagen in the skin; test: Subcutaneous sponge implant: amount of hydroxyproline as index of collagen-synthesizing and tissue-restoring ability; assay type: in vivo; conditions: rats, sponge pieces, Student's t-test p < 0.05
Method: F344/DuCrlCrlj rats (12 heads, 29-week-old male; purchased from Charles River Laboratories Japan, Inc.) were divided into 2 groups each consisting of 6 rats.
The rats of Group 1 and Group 2 were fed with the feed of Example 5 and the control feed of Comparative Example 1, respectively, ad libitum for 7 days. The abdominal area of each rat was shaved with clippers under anesthesia by intraperitoneal administration of pentobarbital, and cut sponge pieces (ca. 150 mg, 2 mm thick, ca. 38 mm×12 mm; Ivalon, Inc.) were inserted into two spots under the skin, followed by suturing. After further feeding for 7 days, the sponge pieces were taken out.
The sponge pieces were subjected to reaction using 6N hydrochloric acid (20 ml/piece) at 110° C. for 18 hours to decompose them with acid and heat. The products obtained by decomposition with acid and heat were diluted 10 times with 1M borate buffer (pH 10.6), and the amount of hydroxyproline was measured in the same manner as in Test Example 1 and was regarded as an index of the collagen-synthesizing ability and tissue-restoring ability of a rat.
The values were shown in terms of average value ±standard deviation and a test of statistical significance was performed by Student's t-test.

[2] = system: skin wrinkles or sagging; test: Parallel-group double-blind test, 10-level self-rating of facial skin condition; assay type: in vivo, human; conditions: oral ingestion, 4 weeks, conclusion from Table 2
Method: Females aged 47 to 65 years (21 subjects) who chronically suffer from dry skin and rough skin were divided into two groups. After a 2-week observation period, Group 1 (9 subjects) and Group 2 (12 subjects) ingested hard capsules of Example 6 and hard capsules of Comparative Example 2, respectively, for 4 weeks (2 capsules each morning and evening). The test was carried out by parallel-group double-blind test. At the start and the end of the period of ingesting hard capsules, the following questions 1 to 3 were addressed to the subjects (answer “1”: level 1, answer “10”: level 10) and the skin conditions of the subjects were evaluated by a 10-level rating system. • Question 1: Evaluate the level of wrinkles on your face.
1: Wrinkles all over the surface
10: No wrinkles • Question 2: Evaluate the elasticity of the skin of your face.
10: Extreme elasticity • Question 3: Evaluate the firmness of the skin of your face.
The improvement rate (%) was calculated according to Equation 1. Improvement rate (%)=average value of levels after intake/average value of levels before intake×100 [Equation 1]

[3] = Concentration of free hydroxyproline in serum and skin after oral intake; assay type: in vivo; conditions: HOS:HR-1 mouse, 500 mg/kg oral, 0.5-24 hours, FIGS. 1 and 2
Method: HOS:HR-1 mouse (seven-week-old female; purchased from Japan SLC, Inc.) was used in the test.
Trans-4-hydroxy-L-proline (Kyowa Hakko Kogyo Co., Ltd.; hereinafter referred to as hydroxyproline) was dissolved in purified water at a concentration of 50 mg/ml, and the resulting solution was orally administered in an amount of 500 mg/kg. After 0.5, 1, 2, 4, 6 and 24 hours, blood was collected from the abdominal vena cava of the mouse under diethyl ether inhalation anesthesia to obtain a serum. After cervical dislocation, dorsal skin was collected, subjected to freeze-disruption and then to extraction with water to obtain a skin extract.
The amount of hydroxyproline in the sera and the skin extract was analyzed by high performance liquid chromatography using ODS column ([…]×15 cm, GL Sciences Inc.) after protein was removed with an equal amount of 2% (w/v) sulfosalicylic acid and the second amino group was labeled with NBD-Cl (4-chloro-7-nitro-2,1,3-benzoxadiazole, Tokyo Chemical Industry Co., Ltd.).

With `O=C(O)[C@@H]1C[C@@H](O)CN1` [hydroxyproline, Trans-4-hydroxy-L-proline] the “amount of hydroxyproline derived from heat-decomposed collagen (versus control feed)” value [1] was “significantly increased”, the “wrinkles and sagging of the face” value [2] was “improved” and the “movement of orally ingested hydroxyproline into blood and skin (free hydroxyproline in serum and skin extract)” value [3] was “quickly moves into blood and skin”.
